Results from PubChem BioAssay (NCI).
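Method: 48-hour compound exposure of cells in 96-well plates, five concentrations, linear interpolation of endpoints. GI50: concentration for 50% inhibition of growth. Definition used: TGI = concentration required for complete inhibition of growth.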

Columns and labels:
Assay in all cases: inhibition of tumour cell growth, NCI panel, 48 h
[1] = system: 786-0 renal
[2] = system: A498 renal
[3] = system: A549 NSCLC
[4] = system: ACHN renal
[5] = system: CAKI-1 renal
[6] = system: COLO 205 colon
[7] = system: DU-145 prostate
[8] = system: EKVX NSCLC
[9] = system: HCC-2998 colon
[10] = system: HCT-116 colon
[11] = system: HCT-15 colon
[12] = system: HL-60(TB) leukemia
[13] = system: HOP-62 NSCLC
[14] = system: HOP-92 NSCLC
[15] = system: HS 578T breast
[16] = system: HT29 colon
[17] = system: IGROV1 ovarian
[18] = system: K-562 leukemia
[19] = system: KM12 colon
[20] = system: LOX IMVI melanoma
[21] = system: M14 melanoma
[22] = system: MALME-3M melanoma
[23] = system: MCF7 breast
[24] = system: MDA-MB-231 breast
[25] = system: MDA-MB-435
[26] = system: MOLT-4 leukemia
[27] = system: NCI-H226 lung
[28] = system: NCI-H23 lung
[29] = system: NCI-H460 lung
[30] = system: NCI-H522 lung
[31] = system: NCI/ADR-RES ovarian
[32] = system: OVCAR-3 ovarian
[33] = system: OVCAR-4 ovarian
[34] = system: OVCAR-5 ovarian
[35] = system: OVCAR-8 ovarian
[36] = system: PC-3 prostate
[37] = system: RPMI-8226 leukemia
[38] = system: RXF 393 renal
[39] = system: SF-268 CNS
[40] = system: SF-295 CNS
[41] = system: SF-539 CNS
[42] = system: SK-MEL-2 melanoma
[43] = system: SK-MEL-28 melanoma
[44] = system: SK-MEL-5 melanoma
[45] = system: SK-OV-3 ovarian
[46] = system: SN12C renal
[47] = system: SNB-19 CNS
[48] = system: SNB-75 CNS
[49] = system: SR leukemia
[50] = system: SW-620 colon
[51] = system: T-47D breast
[52] = system: TK-10 renal
[53] = system: U251 CNS
[54] = system: UACC-257 melanoma
[55] = system: UACC-62 melanoma
[56] = system: UO-31 renal
[57] = system: CCRF-CEM leukemia

Work on `O=C(c1ccccc1)c1cc(Cl)ccc1OCCCCN1CCN(CCCCOc2ccc(Cl)cc2C(=O)c2ccccc2)CC1` yielded a GI50 [1] of 1.96 µM, a TGI [1] of 3.7 µM and a GI50 [2] of 15.2 µM. The TGI [2] was 28.6 µM, the GI50 [3] was 6.6 µM and the TGI [3] was 20.9 µM. It also gave a GI50 [4] of 4.64 µM, a TGI [4] of 16.1 µM and a GI50 [5] of 4.08 µM. It also gave a TGI [5] of 15.1 µM, a GI50 [6] of 1.95 µM and a TGI [6] of 4.78 µM. For the same compound, the GI50 [7] was 2.74 µM, the TGI [7] was 10.1 µM and the GI50 [8] was 10.8 µM. For the same compound, the TGI [8] was 24.7 µM, the GI50 [9] was 2.13 µM and the TGI [9] was 4.05 µM. The GI50 [10] was 1.79 µM, the TGI [10] was 3.38 µM and the GI50 [11] was 2.1 µM. For the same compound, the TGI [11] was 4.27 µM, the GI50 [12] was 2.3 µM and the TGI [12] was 4.9 µM. The GI50 [13] was 3.82 µM, the TGI [13] was 13.6 µM and the GI50 [14] was 2.53 µM. The TGI [14] was 13 µM, the GI50 [15] was 2.19 µM and the TGI [15] was 4.43 µM. It also gave a GI50 [16] of 2.59 µM, a TGI [16] of 7.66 µM and a GI50 [17] of 1.6 µM. It also gave a TGI [17] of 3.22 µM, a GI50 [18] of 1.9 µM and a TGI [18] of 4.87 µM. It also gave a GI50 [19] of 2.09 µM, a TGI [19] of 4.55 µM and a GI50 [20] of 1.73 µM. For the same compound, the TGI [20] was 3.21 µM, the GI50 [21] was 2.01 µM and the TGI [21] was 4.14 µM. It also gave a GI50 [22] of 1.61 µM, a TGI [22] of 3.77 µM and a GI50 [23] of 1.98 µM. For the same compound, the TGI [23] was 4.83 µM, the GI50 [24] was 2.4 µM and the TGI [24] was 5.75 µM. It also gave a GI50 [25] of 3.65 µM, a TGI [25] of 11.9 µM and a GI50 [26] of 3.3 µM. For the same compound, the TGI [26] was 7.5 µM, the GI50 [27] was 13.2 µM and the TGI [27] was 32.2 µM. It also gave a GI50 [28] of 4.73 µM, a TGI [28] of 18.3 µM and a GI50 [29] of 2.17 µM. It also gave a TGI [29] of 4.87 µM, a GI50 [30] of 2.09 µM and a TGI [30] of 3.83 µM. For the same compound, the GI50 [31] was 2.93 µM, the TGI [31] was 12 µM and the GI50 [32] was 2.36 µM. For the same compound, the TGI [32] was 5.78 µM, the GI50 [33] was 6.63 µM and the TGI [33] was 20.5 µM. It also gave a GI50 [34] of 17.9 µM, a TGI [34] of 48.1 µM and a GI50 [35] of 1.82 µM. It also gave a TGI [35] of 3.37 µM, a GI50 [36] of 3.59 µM and a TGI [36] of 13.5 µM. For the same compound, the GI50 [37] was 1.16 µM, the TGI [37] was 2.8 µM and the GI50 [38] was 2.53 µM. For the same compound, the TGI [38] was 5.08 µM, the GI50 [39] was 7.03 µM and the TGI [39] was 23.8 µM. It also gave a GI50 [40] of 2 µM, a TGI [40] of 4.15 µM and a GI50 [41] of 4.8 µM. The TGI [41] was 15.6 µM, the GI50 [42] was 2.58 µM and the TGI [42] was 4.92 µM. The GI50 [43] was 11.5 µM, the TGI [43] was 24.2 µM and the GI50 [44] was 2.34 µM. For the same compound, the TGI [44] was 4.88 µM, the GI50 [45] was 17.1 µM and the TGI [45] was 31.9 µM. It also gave a GI50 [46] of 4.48 µM, a TGI [46] of 18 µM and a GI50 [47] of 10 µM. The TGI [47] was 22.8 µM, the GI50 [48] was 6.98 µM and the TGI [48] was 24.9 µM. The GI50 [49] was 1.83 µM, the TGI [49] was 4.89 µM and the GI50 [50] was 2.92 µM. For the same compound, the TGI [50] was 8.5 µM, the GI50 [51] was 4.59 µM and the TGI [51] was 22.4 µM. For the same compound, the GI50 [52] was 4.26 µM, the TGI [52] was 17 µM and the GI50 [53] was 2.03 µM. It also gave a TGI [53] of 4.14 µM, a GI50 [54] of 3.07 µM and a TGI [54] of 7.57 µM. The GI50 [55] was 9.87 µM, the TGI [55] was 21.9 µM and the GI50 [56] was 3.86 µM. It also gave a TGI [56] of 15.1 µM.
`Cc1ccc2c(n1)C(=O)c1[nH]c3ccccc3c1C2=O` showed a GI50 [2] of 1.38 µM, a TGI [2] of 2.76 µM and a GI50 [3] of 1.61 µM. For the same compound, the TGI [3] was 4.37 µM, the GI50 [4] was 2.1 µM and the TGI [4] was 18.6 µM. The GI50 [5] was 2.37 µM, the TGI [5] was greater than 100 µM and the GI50 [57] was 3.45 µM. For the same compound, the TGI [57] was greater than 100 µM, the GI50 [6] was 1.89 µM and the TGI [6] was 4.14 µM. For the same compound, the GI50 [7] was 1.19 µM, the TGI [7] was 2.53 µM and the GI50 [8] was 1.22 µM. For the same compound, the TGI [8] was 4.17 µM, the GI50 [9] was 1.88 µM and the TGI [9] was 6.37 µM. The GI50 [12] was 2.67 µM, the TGI [12] was 9.43 µM and the GI50 [14] was 2.92 µM. It also gave a TGI [14] of 29 µM, a GI50 [15] of 2.54 µM and a TGI [15] of 7.16 µM. The GI50 [16] was 3.05 µM, the TGI [16] was greater than 100 µM and the GI50 [17] was 0.0819 µM. The TGI [17] was 4.3 µM, the GI50 [18] was 3.14 µM and the TGI [18] was greater than 100 µM. The GI50 [19] was 3.1 µM, the TGI [19] was 19.6 µM and the GI50 [20] was 1.01 µM. The TGI [20] was 24.8 µM, the GI50 [22] was 0.208 µM and the TGI [22] was 1.07 µM. For the same compound, the GI50 [23] was 0.586 µM, the TGI [23] was 2.63 µM and the GI50 [24] was 1.85 µM. It also gave a TGI [24] of 73.6 µM, a GI50 [25] of 1.59 µM and a TGI [25] of 2.94 µM. The GI50 [26] was 3.25 µM, the TGI [26] was 18.9 µM and the GI50 [27] was 1.36 µM. The TGI [27] was 3.65 µM, the GI50 [28] was 0.687 µM and the TGI [28] was 3.79 µM. The GI50 [29] was 0.337 µM, the TGI [29] was 1.63 µM and the GI50 [30] was 2.48 µM. It also gave a TGI [30] of 9.05 µM, a GI50 [31] of 2.28 µM and a TGI [31] of 9.29 µM. For the same compound, the GI50 [32] was 1.26 µM, the TGI [32] was 5.72 µM and the GI50 [33] was 1.13 µM. The TGI [33] was 2.35 µM, the GI50 [34] was 2.11 µM and the TGI [34] was 4.54 µM. The GI50 [35] was 2.61 µM, the TGI [35] was greater than 100 µM and the GI50 [36] was 1.63 µM. For the same compound, the TGI [36] was greater than 100 µM, the GI50 [37] was 2.25 µM and the TGI [37] was 12.3 µM. The GI50 [38] was 2.72 µM, the TGI [38] was 55.4 µM and the GI50 [39] was 3.82 µM. For the same compound, the TGI [39] was greater than 100 µM, the GI50 [40] was 0.761 µM and the TGI [40] was 2.05 µM. The GI50 [41] was 2.15 µM, the TGI [41] was 5.11 µM and the GI50 [42] was 3.36 µM. For the same compound, the TGI [42] was greater than 100 µM, the GI50 [43] was 3.87 µM and the TGI [43] was greater than 100 µM. For the same compound, the GI50 [44] was 0.212 µM, the TGI [44] was 0.583 µM and the GI50 [45] was 4.95 µM. The TGI [45] was greater than 100 µM, the GI50 [46] was 2 µM and the TGI [46] was 6.06 µM. The GI50 [47] was 2.7 µM, the TGI [47] was greater than 100 µM and the GI50 [50] was 2.97 µM. The TGI [50] was greater than 100 µM, the GI50 [51] was 0.537 µM and the TGI [51] was 17.9 µM. The GI50 [52] was 12 µM, the TGI [52] was greater than 100 µM and the GI50 [53] was 2.93 µM. The TGI [53] was greater than 100 µM, the GI50 [54] was 0.513 µM and the TGI [54] was 2.05 µM. The GI50 [55] was 0.557 µM, the TGI [55] was 1.88 µM and the GI50 [56] was 1.63 µM. For the same compound, the TGI [56] was 10.7 µM.
